Test results reported in ChEMBL document CHEMBL1121607, “A novel opioid receptor site directed alkylating agent with irreversible narcotic antagonistic and reversible agonistic activities” (J Med Chem, 1980).

species on record: Cavia porcellus; test: Tested for potent reversible agonist activity on electrically stimulated guinea pig ileal longitudinal muscle preparation; assay type: functional, organism-based; conditions: Muscle tissue

SMILES	IC50 [nM]
COC(=O)/C=C/C(=O)N[C@@H]1CC[C@@]2(O)[C@H]3Cc4ccc(O)c5c4[C@@]2(CCN3CC2CC2)[C@H]1O5	4.8
COC(=O)/C=C/C(=O)N[C@@H]1CC[C@@]2(O)C3Cc4ccc(O)c5c4C2(CCN3C)[C@H]1O5 (stereo partly drawn)	27
O=C1CC[C@@]2(O)[C@H]3Cc4ccc(O)c5c4[C@@]2(CCN3CC2CC2)[C@H]1O5 [NALTREXONE]	50
